Data taken from the supplement of paper PMC10307832.

Key:
Assay in all cases: relative viability (nuclei count vs DMSO), 5 days (fraction); higher = more cells survive
SK-MES-1 = tested on: SK-MES-1
In short: (§1)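 Relative viability equals treated-well nuclei counts divided by vehicle-well nuclei counts. Counts came from 4× images of lung cancer cell lines grown in 1536-well plates for 5 days after pin-tool dosing on the day after seeding. Dosing used one drug alone or a fixed anchor-drug dose plus five library-drug doses (not always all listed) in √10 steps, and values are medians of duplicate plates.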

NCI-H2170 = tested on: NCI-H2170
In short: as §1

NCI-H647 = tested on: NCI-H647
In short: as §1

HCC-827 = tested on: HCC-827
In short: as §1

NCI-H1437 = tested on: NCI-H1437
In short: as §1

NCI-H1395 = tested on: NCI-H1395
In short: as §1

NCI-H1734 = tested on: NCI-H1734
In short: as §1

SK-LU-1 = tested on: SK-LU-1
In short: as §1

NCI-H1993 = tested on: NCI-H1993
In short: as §1

HARA = tested on: HARA
In short: as §1

HCC-366 = tested on: HCC-366
In short: as §1

NCI-H661 = tested on: NCI-H661
In short: as §1

NCI-H1355 = tested on: NCI-H1355
In short: as §1

NCI-H1792 = tested on: NCI-H1792
In short: as §1

NCI-H2009 = tested on: NCI-H2009
In short: as §1

NCI-H2087 = tested on: NCI-H2087
In short: as §1

LOU-NH91 = tested on: LOU-NH91
In short: as §1

EKVX = tested on: EKVX
In short: as §1

NCI-H2405 = tested on: NCI-H2405
In short: as §1

BEN = tested on: BEN
In short: as §1

Structure (SMILES): COc1nc(C)cnc1NS(=O)(=O)c1cccnc1-c1ccc(-c2nnco2)cc1 [Zibotentan] + CS(=O)(=O)N1CCN(Cc2cc3nc(-c4cccc5[nH]ncc45)nc(N4CCOCC4)c3s2)CC1 [Pictilisib] (partner 1 µM)
- relative viability (SK-MES-1; first compound 0.08 µM): 0.344
- relative viability (SK-MES-1; first compound 0.253 µM): 0.356
- relative viability (SK-MES-1; first compound 0.8 µM): 0.388
- relative viability (SK-MES-1; first compound 2.53 µM): 0.428
- relative viability (NCI-H2170; first compound 0.08 µM): 0.282
- relative viability (NCI-H2170; first compound 0.253 µM): 0.295
- relative viability (NCI-H2170; first compound 0.8 µM): 0.316
- relative viability (NCI-H2170; first compound 2.53 µM): 0.368
- relative viability (NCI-H647; first compound 0.08 µM): 0.391
- relative viability (NCI-H647; first compound 0.253 µM): 0.355
- relative viability (NCI-H647; first compound 0.8 µM): 0.41
- relative viability (NCI-H647; first compound 2.53 µM): 0.388
- relative viability (HCC-827; first compound 0.08 µM): 0.95
- relative viability (HCC-827; first compound 0.253 µM): 0.846
- relative viability (HCC-827; first compound 0.8 µM): 0.964
- relative viability (HCC-827; first compound 2.53 µM): 0.956
- relative viability (NCI-H1437; first compound 0.08 µM): 0.462
- relative viability (NCI-H1437; first compound 0.253 µM): 0.334
- relative viability (NCI-H1437; first compound 0.8 µM): 0.366
- relative viability (NCI-H1437; first compound 2.53 µM): 0.582
- relative viability (NCI-H1395; first compound 0.08 µM): 0.789
- relative viability (NCI-H1395; first compound 0.253 µM): 0.546
- relative viability (NCI-H1395; first compound 0.8 µM): 0.606
- relative viability (NCI-H1395; first compound 2.53 µM): 0.541
- relative viability (NCI-H1734; first compound 0.08 µM): 0.516
- relative viability (NCI-H1734; first compound 0.253 µM): 0.442
- relative viability (NCI-H1734; first compound 0.8 µM): 0.461
- relative viability (NCI-H1734; first compound 2.53 µM): 0.43
- relative viability (SK-LU-1; first compound 0.08 µM): 0.603
- relative viability (SK-LU-1; first compound 0.253 µM): 0.456
- relative viability (SK-LU-1; first compound 0.8 µM): 0.603
- relative viability (SK-LU-1; first compound 2.53 µM): 0.54
- relative viability (NCI-H1993; first compound 0.253 µM): 0.736
- relative viability (NCI-H1993; first compound 0.8 µM): 0.748
- relative viability (NCI-H1993; first compound 2.53 µM): 0.796
- relative viability (HARA; first compound 0.08 µM): 0.443
- relative viability (HARA; first compound 0.253 µM): 0.438
- relative viability (HARA; first compound 0.8 µM): 0.351
- relative viability (HARA; first compound 2.53 µM): 0.57
- relative viability (HCC-366; first compound 0.08 µM): 0.145
- relative viability (HCC-366; first compound 0.253 µM): 0.156
- relative viability (HCC-366; first compound 0.8 µM): 0.141
- relative viability (HCC-366; first compound 2.53 µM): 0.148
- relative viability (NCI-H661; first compound 0.08 µM): 0.43
- relative viability (NCI-H661; first compound 0.253 µM): 0.302
- relative viability (NCI-H661; first compound 0.8 µM): 0.391
- relative viability (NCI-H661; first compound 2.53 µM): 0.314
- relative viability (NCI-H1355; first compound 0.08 µM): 0.403
- relative viability (NCI-H1355; first compound 0.253 µM): 0.424
- relative viability (NCI-H1355; first compound 0.8 µM): 0.431
- relative viability (NCI-H1355; first compound 2.53 µM): 0.436
- relative viability (NCI-H1792; first compound 0.08 µM): 0.275
- relative viability (NCI-H1792; first compound 0.253 µM): 0.234
- relative viability (NCI-H1792; first compound 0.8 µM): 0.257
- relative viability (NCI-H1792; first compound 2.53 µM): 0.246
- relative viability (NCI-H2009; first compound 0.08 µM): 0.889
- relative viability (NCI-H2009; first compound 0.253 µM): 0.774
- relative viability (NCI-H2009; first compound 0.8 µM): 0.822
- relative viability (NCI-H2009; first compound 2.53 µM): 0.886
- relative viability (NCI-H2087; first compound 0.08 µM): 0.881
- relative viability (NCI-H2087; first compound 0.253 µM): 0.834
- relative viability (NCI-H2087; first compound 0.8 µM): 1.01
- relative viability (NCI-H2087; first compound 2.53 µM): 0.954
- relative viability (LOU-NH91; first compound 0.08 µM): 0.497
- relative viability (LOU-NH91; first compound 0.253 µM): 0.468
- relative viability (LOU-NH91; first compound 0.8 µM): 0.515
- relative viability (LOU-NH91; first compound 2.53 µM): 0.54
- relative viability (EKVX; first compound 0.08 µM): 0.465
- relative viability (EKVX; first compound 0.253 µM): 0.451
- relative viability (EKVX; first compound 0.8 µM): 0.439
- relative viability (EKVX; first compound 2.53 µM): 0.453
- relative viability (NCI-H2405; first compound 0.08 µM): 0.441
- relative viability (NCI-H2405; first compound 0.253 µM): 0.339
- relative viability (NCI-H2405; first compound 0.8 µM): 0.473
- relative viability (NCI-H2405; first compound 2.53 µM): 0.481
- relative viability (BEN; first compound 0.08 µM): 0.652
- relative viability (BEN; first compound 0.253 µM): 0.448
- relative viability (BEN; first compound 0.8 µM): 0.55
- relative viability (BEN; first compound 2.53 µM): 0.552

Structure (SMILES): COc1nc(C)cnc1NS(=O)(=O)c1cccnc1-c1ccc(-c2nnco2)cc1 [Zibotentan] + Cc1nc(NC(=O)N2CCC[C@H]2C(N)=O)sc1-c1ccnc(C(C)(C)C(F)(F)F)c1 [Alpelisib] (partner 2 µM)
- relative viability (SK-MES-1; first compound 0.08 µM): 0.947
- relative viability (SK-MES-1; first compound 0.253 µM): 0.871
- relative viability (SK-MES-1; first compound 0.8 µM): 0.948
- relative viability (SK-MES-1; first compound 2.53 µM): 0.989
- relative viability (NCI-H2170; first compound 0.08 µM): 0.802
- relative viability (NCI-H2170; first compound 0.253 µM): 0.791
- relative viability (NCI-H2170; first compound 0.8 µM): 0.889
- relative viability (NCI-H2170; first compound 2.53 µM): 0.835
- relative viability (NCI-H647; first compound 0.08 µM): 1.29
- relative viability (NCI-H647; first compound 0.253 µM): 0.92
- relative viability (NCI-H647; first compound 0.8 µM): 1.28
- relative viability (NCI-H647; first compound 2.53 µM): 1.24
- relative viability (HCC-827; first compound 0.08 µM): 1.01
- relative viability (HCC-827; first compound 0.253 µM): 1.07
- relative viability (HCC-827; first compound 0.8 µM): 0.808
- relative viability (HCC-827; first compound 2.53 µM): 0.975
- relative viability (NCI-H1437; first compound 0.08 µM): 0.949
- relative viability (NCI-H1437; first compound 0.253 µM): 0.867
- relative viability (NCI-H1437; first compound 0.8 µM): 0.913
- relative viability (NCI-H1437; first compound 2.53 µM): 0.973
- relative viability (NCI-H1395; first compound 0.08 µM): 1.28
- relative viability (NCI-H1395; first compound 0.253 µM): 0.993
- relative viability (NCI-H1395; first compound 0.8 µM): 1.18
- relative viability (NCI-H1395; first compound 2.53 µM): 1.42
- relative viability (NCI-H1734; first compound 0.08 µM): 0.794
- relative viability (NCI-H1734; first compound 0.253 µM): 0.726
- relative viability (NCI-H1734; first compound 0.8 µM): 0.681
- relative viability (NCI-H1734; first compound 2.53 µM): 0.686
- relative viability (SK-LU-1; first compound 0.08 µM): 1.08
- relative viability (SK-LU-1; first compound 0.253 µM): 0.629
- relative viability (SK-LU-1; first compound 0.8 µM): 1.12
- relative viability (SK-LU-1; first compound 2.53 µM): 0.907
- relative viability (NCI-H1993; first compound 0.253 µM): 0.679
- relative viability (NCI-H1993; first compound 0.8 µM): 0.652
- relative viability (NCI-H1993; first compound 2.53 µM): 0.766
- relative viability (HARA; first compound 0.08 µM): 0.856
- relative viability (HARA; first compound 0.253 µM): 0.764
- relative viability (HARA; first compound 0.8 µM): 0.686
- relative viability (HARA; first compound 2.53 µM): 0.89
- relative viability (HCC-366; first compound 0.08 µM): 0.561
- relative viability (HCC-366; first compound 0.253 µM): 0.373
- relative viability (HCC-366; first compound 0.8 µM): 0.474
- relative viability (HCC-366; first compound 2.53 µM): 0.497
- relative viability (NCI-H661; first compound 0.08 µM): 0.717
- relative viability (NCI-H661; first compound 0.253 µM): 0.49
- relative viability (NCI-H661; first compound 0.8 µM): 0.569
- relative viability (NCI-H661; first compound 2.53 µM): 0.578
- relative viability (NCI-H1355; first compound 0.08 µM): 0.942
- relative viability (NCI-H1355; first compound 0.253 µM): 0.898
- relative viability (NCI-H1355; first compound 0.8 µM): 0.825
- relative viability (NCI-H1355; first compound 2.53 µM): 0.794
- relative viability (NCI-H1792; first compound 0.08 µM): 0.621
- relative viability (NCI-H1792; first compound 0.253 µM): 0.58
- relative viability (NCI-H1792; first compound 0.8 µM): 0.559
- relative viability (NCI-H1792; first compound 2.53 µM): 0.648
- relative viability (NCI-H2009; first compound 0.08 µM): 1.14
- relative viability (NCI-H2009; first compound 0.253 µM): 1.1
- relative viability (NCI-H2009; first compound 0.8 µM): 1.18
- relative viability (NCI-H2009; first compound 2.53 µM): 1.2
- relative viability (NCI-H2087; first compound 0.08 µM): 1.06
- relative viability (NCI-H2087; first compound 0.253 µM): 1.13
- relative viability (NCI-H2087; first compound 0.8 µM): 1.03
- relative viability (NCI-H2087; first compound 2.53 µM): 1.05
- relative viability (LOU-NH91; first compound 0.08 µM): 0.749
- relative viability (LOU-NH91; first compound 0.253 µM): 0.696
- relative viability (LOU-NH91; first compound 0.8 µM): 0.785
- relative viability (LOU-NH91; first compound 2.53 µM): 0.702
- relative viability (EKVX; first compound 0.08 µM): 0.927
- relative viability (EKVX; first compound 0.253 µM): 0.86
- relative viability (EKVX; first compound 0.8 µM): 0.775
- relative viability (EKVX; first compound 2.53 µM): 0.82
- relative viability (NCI-H2405; first compound 0.08 µM): 0.787
- relative viability (NCI-H2405; first compound 0.253 µM): 0.65
- relative viability (NCI-H2405; first compound 0.8 µM): 0.745
- relative viability (NCI-H2405; first compound 2.53 µM): 0.948
- relative viability (BEN; first compound 0.08 µM): 1.17
- relative viability (BEN; first compound 0.253 µM): 0.955
- relative viability (BEN; first compound 0.8 µM): 1.02
- relative viability (BEN; first compound 2.53 µM): 0.922
